Experiments:
Format in all cases: in vivo
barnyardgrass [1] = experiment: Test Example 1: herbicidal effects in preemergence treatment under submerged conditions; conditions: dose 2.52 g/a
In short: (§1)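 Alluvial soil was flooded to 4 cm, sown with barnyardgrass, bulrush and ducksalad, and planted with 2.5-leaf rice seedlings. On the seeding day, water-diluted emulsifiable concentrates were applied to the water surface at set doses (g/a). After three weeks in a 25 to 30° C. greenhouse, mortality was scored 0–5.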

bulrush [2] = experiment: as above; conditions: dose 2.52 g/a
In short: as §1

ducksalad [3] = experiment: as above; conditions: dose 2.52 g/a
In short: as §1

transplanted rice = experiment: Test Example 1: preemergence treatment under submerged conditions, effect on crop; conditions: dose 2.52 g/a
In short: as §1

barnyardgrass [4] = experiment: Test Example 2: herbicidal effects during the vegetation period under submerged conditions; conditions: treatment during the vegetation period under submerged conditions; dose 2.52 g/a
In short: (§2)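 Barnyardgrass, bulrush and ducksalad were co-sown in alluvial soil flooded to 4 cm and grown in a greenhouse at 25 to 30° C. At the 1- or 2-leaf stage, water-diluted emulsifiable concentrates went onto the water surface at set doses (g/a). Herbicidal effect was scored three weeks later on a graded scale.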

bulrush [5] = experiment: as above; conditions: treatment during the vegetation period under submerged conditions; dose 2.52 g/a
In short: as §2

ducksalad [6] = experiment: as above; conditions: treatment during the vegetation period under submerged conditions; dose 2.52 g/a
In short: as §2

Italian ryegrass [7] = experiment: Test Example 4: herbicidal effect in foliage treatment; conditions: dose 3.2 g/a
In short: (§3)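 Weeds and crops sown in sterilized diluvial soil under ~1.5 cm cover and grown in greenhouse at 25 to 30° C. At 14 days, water-diluted emulsifiable concentrate sprayed onto foliage at set doses (g/a); herbicidal effect scored on a rating scale three weeks after application.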

barnyardgrass [8] = experiment: as above; conditions: dose 3.2 g/a
In short: as §3

beadstraw = experiment: as above; conditions: dose 3.2 g/a
In short: as §3

common chickweed [9] = experiment: as above; conditions: dose 3.2 g/a
In short: as §3

common lambsquater [10] = experiment: as above; conditions: dose 3.2 g/a
In short: as §3

common ragweed [11] = experiment: as above; conditions: dose 3.2 g/a
In short: as §3

giant foxtail [12] = experiment: as above; conditions: dose 3.2 g/a
In short: as §3

large crabgrass [13] = experiment: as above; conditions: dose 3.2 g/a
In short: as §3

posumbu knotweed [14] = experiment: as above; conditions: dose 3.2 g/a
In short: as §3

redroot pigweed [15] = experiment: as above; conditions: dose 3.2 g/a
In short: as §3

velvetleaf [16] = experiment: as above; conditions: dose 3.2 g/a
In short: as §3

water foxtail [17] = experiment: as above; conditions: dose 3.2 g/a
In short: as §3

wild oat = experiment: as above; conditions: dose 3.2 g/a, three weeks after the application
In short: as §3

Italian ryegrass [18] = experiment: Test Example 3: herbicidal effects in soil treatment; conditions: dose 3.2 g/a
In short: (§4)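 Seeds were sown in sterilized diluvial soil and covered with about 1.5 cm of soil. Compounds, formulated as emulsifiable concentrates and diluted with water, were sprayed evenly over the soil surface at set doses in g/a. Herbicidal effect was scored on a rating scale three weeks later.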

barnyardgrass [19] = experiment: as above; conditions: dose 3.2 g/a
In short: as §4

common chickweed [20] = experiment: as above; conditions: dose 3.2 g/a
In short: as §4

common lambsquater [21] = experiment: as above; conditions: dose 3.2 g/a
In short: as §4

common ragweed [22] = experiment: as above; conditions: dose 3.2 g/a
In short: as §4

giant foxtail [23] = experiment: as above; conditions: dose 3.2 g/a
In short: as §4

large crabgrass [24] = experiment: as above; conditions: dose 3.2 g/a
In short: as §4

posumbu knotweed [25] = experiment: as above; conditions: dose 3.2 g/a
In short: as §4

redroot pigweed [26] = experiment: as above; conditions: dose 3.2 g/a
In short: as §4

velvetleaf [27] = experiment: as above; conditions: dose 3.2 g/a
In short: as §4

water foxtail [28] = experiment: as above; conditions: dose 3.2 g/a
In short: as §4

[29] = three weeks after the application

CCOC(=O)N(c1ccccc1CN1COC(C)(C(F)(F)F)C(Br)C1=O)S(=O)(=O)C(F)(F)F (centres unmarked) [II-75]
A: barnyardgrass, herbicidal effect (evaluation scale 0-5) (barnyardgrass [1]): 5 (mortality of 90% or above (nearly complete death))
B: bulrush, herbicidal effect (evaluation scale 0-5) (bulrush [2]): 5 (mortality of 90% or above (nearly complete death))
C: ducksalad, herbicidal effect (evaluation scale 0-5) (ducksalad [3]): 5 (mortality of 90% or above (nearly complete death))
a: transplanted rice, effect on crop (evaluation scale 0-5) (transplanted rice): 0 (mortality of less than 5% (almost ineffective))
A: barnyardgrass, herbicidal effect (evaluation scale 0-5) (barnyardgrass [4]): 5 (mortality of 90% or above (nearly complete death))
B: bulrush, herbicidal effect (evaluation scale 0-5) (bulrush [5]): 5 (mortality of 90% or above (nearly complete death))
C: ducksalad, herbicidal effect (evaluation scale 0-5) (ducksalad [6]): 5 (mortality of 90% or above (nearly complete death))
H: Italian ryegrass, herbicidal effect (Italian ryegrass [7]; [29]): 3 (mortality of at least 40% and less than 70%)
A: barnyardgrass, herbicidal effect (barnyardgrass [8]; [29]): 4 (mortality of at least 70% and less than 90%)
O: beadstraw, herbicidal effect (beadstraw; [29]): 5 (mortality of 90% or above (nearly complete death))
N: common chickweed, herbicidal effect (common chickweed [9]; [29]): 3 (mortality of at least 40% and less than 70%)
L: common lambsquater, herbicidal effect (common lambsquater [10]; [29]): 4 (mortality of at least 70% and less than 90%)
J: common ragweed, herbicidal effect (common ragweed [11]; [29]): 0 (mortality of less than 5% (almost ineffective))
E: giant foxtail, herbicidal effect (giant foxtail [12]; [29]): 1 (mortality of at least 5% and less than 20%)
D: large crabgrass, herbicidal effect (large crabgrass [13]; [29]): 1 (mortality of at least 5% and less than 20%)
M: posumbu knotweed, herbicidal effect (posumbu knotweed [14]; [29]): 1 (mortality of at least 5% and less than 20%)
K: redroot pigweed, herbicidal effect (redroot pigweed [15]; [29]): 3 (mortality of at least 40% and less than 70%)
I: velvetleaf, herbicidal effect (velvetleaf [16]; [29]): 3 (mortality of at least 40% and less than 70%)
G: water foxtail, herbicidal effect (water foxtail [17]; [29]): 2 (mortality of at least 20% and less than 40%)
F: wild oat, herbicidal effect (wild oat): 0 (mortality of less than 5% (almost ineffective))

CC1(C(F)(F)F)CC(=O)N(Cc2ccccc2NS(=O)(=O)C(F)(F)F)CO1 (centres unmarked) [II-46]
A: barnyardgrass, herbicidal effect (evaluation scale 0-5) (barnyardgrass [1]): 4 (mortality of at least 70% and less than 90%)
B: bulrush, herbicidal effect (evaluation scale 0-5) (bulrush [2]): 5 (mortality of 90% or above (nearly complete death))
C: ducksalad, herbicidal effect (evaluation scale 0-5) (ducksalad [3]): 5 (mortality of 90% or above (nearly complete death))
a: transplanted rice, effect on crop (evaluation scale 0-5) (transplanted rice): 0 (mortality of less than 5% (almost ineffective))
A: barnyardgrass, herbicidal effect (evaluation scale 0-5) (barnyardgrass [4]): 4 (mortality of at least 70% and less than 90%)
B: bulrush, herbicidal effect (evaluation scale 0-5) (bulrush [5]): 5 (mortality of 90% or above (nearly complete death))
C: ducksalad, herbicidal effect (evaluation scale 0-5) (ducksalad [6]): 5 (mortality of 90% or above (nearly complete death))
H: Italian ryegrass, herbicidal effect (evaluation scale 0-5) (Italian ryegrass [18]): 3 (mortality of at least 40% and less than 70%)
A: barnyardgrass, herbicidal effect (evaluation scale 0-5) (barnyardgrass [19]): 5 (mortality of 90% or above (nearly complete death))
N: common chickweed, herbicidal effect (evaluation scale 0-5) (common chickweed [20]): 4 (mortality of at least 70% and less than 90%)
L: common lambsquater, herbicidal effect (evaluation scale 0-5) (common lambsquater [21]): 4 (mortality of at least 70% and less than 90%)
J: common ragweed, herbicidal effect (evaluation scale 0-5) (common ragweed [22]): 4 (mortality of at least 70% and less than 90%)
E: giant foxtail, herbicidal effect (evaluation scale 0-5) (giant foxtail [23]): 5 (mortality of 90% or above (nearly complete death))
D: large crabgrass, herbicidal effect (evaluation scale 0-5) (large crabgrass [24]): 5 (mortality of 90% or above (nearly complete death))
M: posumbu knotweed, herbicidal effect (evaluation scale 0-5) (posumbu knotweed [25]): 3 (mortality of at least 40% and less than 70%)
K: redroot pigweed, herbicidal effect (evaluation scale 0-5) (redroot pigweed [26]): 0 (mortality of less than 5% (almost ineffective))
I: velvetleaf, herbicidal effect (evaluation scale 0-5) (velvetleaf [27]): 3 (mortality of at least 40% and less than 70%)
G: water foxtail, herbicidal effect (evaluation scale 0-5) (water foxtail [28]): 5 (mortality of 90% or above (nearly complete death))
H: Italian ryegrass, herbicidal effect (Italian ryegrass [7]; three weeks after application): 0 (mortality of less than 5% (almost ineffective))
A: barnyardgrass, herbicidal effect (barnyardgrass [8]; three weeks after application): 4 (mortality of at least 70% and less than 90%)
O: beadstraw, herbicidal effect (beadstraw; three weeks after application): 4 (mortality of at least 70% and less than 90%)
N: common chickweed, herbicidal effect (common chickweed [9]; three weeks after application): 4 (mortality of at least 70% and less than 90%)
L: common lambsquater, herbicidal effect (common lambsquater [10]; three weeks after application): 2 (mortality of at least 20% and less than 40%)
J: common ragweed, herbicidal effect (common ragweed [11]; three weeks after application): 3 (mortality of at least 40% and less than 70%)
E: giant foxtail, herbicidal effect (giant foxtail [12]; three weeks after application): 4 (mortality of at least 70% and less than 90%)
D: large crabgrass, herbicidal effect (large crabgrass [13]; three weeks after application): 4 (mortality of at least 70% and less than 90%)
M: posumbu knotweed, herbicidal effect (posumbu knotweed [14]; three weeks after application): 2 (mortality of at least 20% and less than 40%)
K: redroot pigweed, herbicidal effect (redroot pigweed [15]; three weeks after application): 0 (mortality of less than 5% (almost ineffective))
I: velvetleaf, herbicidal effect (velvetleaf [16]; three weeks after application): 1 (mortality of at least 5% and less than 20%)
G: water foxtail, herbicidal effect (water foxtail [17]; three weeks after application): 2 (mortality of at least 20% and less than 40%)

— patent publication US20120029187A1, “HALOALKYLSULFONANILIDE DERIVATIVE” (Nissan Chemical Industries, Ltd., priority 2009, published 2012)
